# System: KRAS G12C mutant NCI-H358 cells
# Assay: Cell proliferation inhibition experiment, 3D spheroid, CellTiter-Glo, NCI-H358
# Assay type: cell-based, human
# Conditions: Homo sapiens, NCI-H358, 120 h, NCI-H358 (KRAS G12C mutant) 3D spheroid, 5 days with compound, CellTiter-Glo; read-out: H358 IC50
# Source text: Raw materials and instruments: NCI-H358 purchased from ATCC; article number: CRL-5807; batch number: 70010825; A549 purchased from ATCC; article number: CCL-185; batch number: 70007820; RPMI1640 purchased from Gibco; article number: 11875-093; batch number: 2152748; F-12K purchased from Gibco; article number: 21127-022; batch number: 2185853; FBS purchased from Gibco; article number: 10099-141; batch number: 2109290CP; PS purchased from Gibco; article number: 15140-122; batch number: 2145451; Trypsin-EDTApurchased from Gibco; article number: 25200-072; batch number: 2085552; CellTiter Glo working solution purchased from Promega; article number: G9683; batch number: 398478; DMSO purchased from VWR AMRESCO; article number: 0231-500ML; batch number: 18C0656168; 384-well spheroid plate purchased from Corning; article number: 3830; batch number: 27519032; white opaque 384-well plate purchased from Corning; article number: 3570; batch number: 26819023; microplate reader purchased from PerkinElmer; model: Envision MLD2105-0020; equipment number 1050369.
# NCI-H358 is a KRAS G12C mutant human non-small cell lung cancer cell line, cultured in 10% FBS RPMI-1640+1% PS culture medium; and A549 is a KRAS G12S mutant human lung adenocarcinoma cell line, cultured in 10% FBS F-12K+1% PS culture medium. Cells at logarithmic growth stage were taken, digested with trypsin-EDTA, then collected and counted. H358 was adjusted to 1.8 E4 cells/mL with 2% FBS RPMI-1640 culture medium, and A549 was adjusted to 8.9 E3 cells/mL with 2% FBS F-12K culture medium; 800 (45 μL) H358 or 400 (45 μL) A549 were inoculated respectively in a 384-well spheroid plate and cultured overnight to establish a 3D cell model. A 3.16-fold gradient concentration stock solution of 1000× compound was prepared with DMSO, and diluted 100-fold to 10× compound stock solution with 2% FBS culture medium. On the second day after cell inoculation, 5 μL of 10× compound stock solution was added to each cell culture well, with a final concentration of 1× and a DMSO content of 0.1%. DMSO was used as experimental control (control), and 2% FBS culture medium was used as blank control (blank). After 5 days of compound cell culture, 25 μL of CellTiter-Glo working solution was added to each well, mixed well at 400 rpm and incubated for 30 minutes. After standing at room temperature for 30 minutes, 40 μL of the mixed solution was transferred to a white opaque 384-well plate, and the luminescence chemiluminescence value was read with a microplate reader. The cell proliferation inhibition rate IR (%)=(RLU control -RLU compound)/(RLU control -RLU blank) x100% was calculated. The gradient dilution concentration of the compound and the corresponding cell proliferation inhibition rate were fitted by Prism 6 four-parameter method, and the IC50 value was calculated. The inhibitory activity of the compounds prepared in the above embodiments of the present disclosure on KRAS G12C mutant NCI-H358 cells was 0.0001 μM to 0.5 μM; the inhibitory activity of some compounds on KRAS G12C mutant NCI-H358 cells was 0.001 μM to 0.1 μM or 0.001 μM to 0.05 μM.
row,Compound,IC50 [nM]
1,"C=CC(=O)N1CCN2C(=O)c3c(N4CCC45CCC5)nc(-c4c(O)cccc4F)c(Cl)c3OC[C@H]2C1 [Z309, (6aR)-8-acryloyl-4-chloro-3-(2-fluoro-6-hydroxyphenyl)-1-(1-azaspiro[3.3]heptan-1-yl)-6,6a,7,8,9,10-hexahydro-12H-pyrazino[2,1-c]pyrido[3,4-f][1,4]oxazepin-12-one]",291
2,"C=CC(=O)N1CCN2C(=O)c3c(N4CCN5CCC[C@H]5C4)nc(-c4c(O)cccc4F)c(Cl)c3OC[C@H]2C1 [Z317-1, (6aR)-8-acryloyl-4-chloro-3-(2-fluoro-6-hydroxyphenyl)-1-((S)-hexahydropyrrolo[1,2-a]pyrazin-2(1H)-yl)-6,6a,7,8,9,10-hexahydro-12H-pyrazino[2,1-c]pyrido[3,4-f][1,4]oxazepin-12-one]",54.1
3,"C=CC(=O)N1CCN2C(=O)C3=C(OC[C@H]2C1)C(C)=C(c1c(O)cccc1F)CN3N1C[C@@H](O)CC1(C)C (single isomer, unassigned) [Z336-1]",43
4,C=CC(=O)N1CCN2C(=O)c3c(N4CCC[C@]4(C)CO)nc(-c4c(O)cccc4F)c(Cl)c3OC[C@H]2C1 [Z279-1],185
5,"C=CC(=O)N1CCN2C(=O)c3c(OCC4N(C)CCC4(C)C)nc(-c4c(O)cccc4F)c(Cl)c3OC[C@H]2C1 (stereo partly drawn) [Z110, (6aR)-8-acryloyl-4-chloro-1-((1,3,3-trimethyltetrahydropyrrol-2-yl)methoxy)-3-(2-fluoro-6-hydroxyphenyl)-6,6a,7,8,9,10-hexahydro-12H-pyrazino[2,1-c]pyrido[3,4-f][1,4]oxazepin-12-one]",44.9
6,"C=CC(=O)N1CCN2C(=O)c3c(N4C[C@H](C)O[C@@H](C)C4)nc(-c4c(O)cccc4F)c(Cl)c3OC[C@H]2C1 [Z248-1, (6aR)-8-acryloyl-1-((2S,6S)-2,6-dimethylmorpholino)-4-chloro-3-(2-fluoro-6-hydroxyphenyl)-6,6a,7,8,9,10-hexahydro-12H-pyrazino[2,1-c]pyrido[3,4-f][1,4]oxazepin-12-one]",234
7,"C=CC(=O)N1CCN2C(=O)c3c(N4CCOC(C)(C)C4)nc(-c4c(C)ccc5[nH]ncc45)c(F)c3OC[C@H]2C1 [Z238, (6aR)-8-acryloyl-1-(2,2-dimethylmorpholino)-4-fluoro-3-(5-methyl-1H-indazol-4-yl)-6,6a,7,8,9,10-hexahydro-12H-pyrazino[2,1-c]pyrido[3,4-f][1,4]oxazepin-12-one]",285

# Continued by falling IC50, values first:
row,IC50 [nM],Compound
1,144,"C=CC(=O)N1CCN2C(=O)c3c(N4[C@H](C)COC[C@@H]4C)nc(-c4c(O)cccc4F)c(Cl)c3OC[C@H]2C1 [Z252-1, (6aR)-8-acryloyl-1-(3R,5S-dimethylmorpholino)-4-chloro-3-(2-fluoro-6-hydroxyphenyl)-6,6a,7,8,9, 10-hexahydro-12H-pyrazino[2,1-c]pyrido[3,4-f][1,4]oxazepin-12-one]"
2,137,"C=CC(=O)N1CCN2C(=O)c3c(N4CCOCC4)nc(-c4c(O)cccc4F)c(F)c3OC[C@H]2C1 [Z329, (6aR)-8-acryloyl-1-(morpholino)-4-fluoro-3-(2-fluoro-6-hydroxyphenyl)-6,6a,7,8,9,10-hexahydro-12H-pyrazino[2,1-c]pyrido[3,4-f][1,4]oxazepin-12-one]"
3,69,"C=CC(=O)N1CCN2C(=O)c3c(cc(-c4c(O)cccc4F)nc3N3CCOC(C)(C)C3)OC[C@H]2C1 [Z263, (6aR)-8-acryloyl-1-(2,2-dimethylmorpholino)-3-(2-fluoro-6-hydroxyphenyl)-6,6a,7,8,9,10-hexahydro-12H-pyrazino[2,1-c]pyrido[3,4-f][1,4]oxazepin-12-one]"
4,31.3,C=CC(=O)N1CCN2C(=O)c3c(N4CCOCC4)nc(-c4nc(N)ccc4C(F)(F)F)c(Cl)c3OC[C@H]2C1 [Z267]
5,26.3,"C=CC(=O)N1CCN2C(=O)c3c(N4CCCC(C)C4C)nc(-c4c(O)cccc4F)c(Cl)c3OC[C@H]2C1 (stereo partly drawn) [Z99, (6aR)-8-acryloyl-4-chloro-1-(2,3-dimethylpiperidin-1-yl)-3-(2-fluoro-6-hydroxyphenyl)-6,6a,7,8,9,10-hexahydro-12H-pyrazino[2,1-c]pyrido[3,4-f][1,4]oxazepin-12-one]"
